Source: patent US4775524A, “Method of treating hyperproliferative skin disease with substituted heterospiro pyridine derivatives” (Schering Corporation, priority 1986, dated 1988)

Tested on: arachidonic acid-induced inflammatory reaction, mouse ear
Test: Arachidonic Acid Mouse Ear Test
Assay type: in vivo, Charles River, female, CD, (SD) BR mice
Conditions: topical, 30 minutes prior to AA challenge; for Tissue Wt.: 6 mm punch biopsy 1 hour after AA, mean ± standard error; for % Inhibition: biopsy 1 hour after AA
Text: A compound of formula I may be utilized to treat hyperoroliferative skin disease in a mammal. As used herein, "hyperproliferative skin disease" means any condition a symptom of which is accelerated skin cell production, flaking, scales or papular lesions. Representative examples of hyperproliferative skin diseases include osoriasis, eczema, dandruff and the like. […] The Arachidonic Acid Mouse Ear Test is a recognized model for assessing the effectiveness of compounds for the treatment of hyperproliferative skin disease.
Charles River, female, CD, (SD) BR mice, 6 weeks old, are caged 8/group and allowed to acclimate 1-3 weeks prior to use.
Arachidonic acid (AA) is dissolved in reagent grade acetone (2 mg/0.01 ml) and stored at -20° C. for a maximum of 1 week prior to use. Inflammatory reactions are induced by applying 10 μl of AA to both surfaces of one ear (4 mg total).
Test drugs are dissolved in either reagent grade acetone or acueous ethanol (only if insoluble in acetone) at the same doses selected by Opas et al., Fed. Proc. 43, Abstract 2983, P. 1927 (1984) and Young et al., J. Invest. Dermatol. 82, pp. 367-371 (1984). These doses are employed to ensure maximum responses and to overcome any difference in topical absorption which could occur with any drug applied in an aqueous ethanol vehicle. The test drug is applied 30 minutes prior to challenge with AA.
The severity of the skin reaction is measured as a function of increased ear weight. A 6 mm punch biopsy is removed 1 hour after AA challenge and weighed to the nearest 0.1 mg. Mean ± standard error and all possible comparisons are made via Duncan's Multiple Range Statistic.

O=C1c2cccnc2N(c2ccccc2)C(=O)C12CCCCO2 (centres unmarked) [1-Phenyl-3',4',5',6'-tetrahydro-spiro-[1,8-naphthyridine-3,2'-(2H)pyran]-2,4-dione]
Tissue Wt. (dose 0.125 mg/ear): 4.86 ± 0.39 mg | % Inhibition (dose 0.125 mg/ear): 30% | Tissue Wt. (dose 0.25 mg/ear): 4.97 ± 0.7 mg | % Inhibition (dose 0.25 mg/ear): 28% | Tissue Wt. (dose 0.5 mg/ear): 4.39 ± 0.62 mg | % Inhibition (dose 0.5 mg/ear): 37% | Tissue Wt. (dose 1.0 mg/ear): 2.27 ± 0.29 mg | % Inhibition (dose 1.0 mg/ear): 67%
